Measured values from patent publication US6737383B1, “Herbicidal oxadiazolidines” (priority 1999, dated 2004).

Tests used:
[1] = tested on: rice; experiment: Test B flood test rice; assay type: in vivo, Oryza sativa; settings: for Plant response rating, Rice (0 to 10 scale, 0 is no effect, 10 is complete control): Rate 62 g/ha; for Plant response rating, Rice (0 to 10 scale, 0 is no effect, 10 is complete control) / Rice plant response rating (0 to 10 scale, 0 is no effect, 10 is complete control): visual evaluation after twelve to sixteen days; for Rice plant response rating (0 to 10 scale, 0 is no effect, 10 is complete control): Rate 125 g/ha, under heading Pre-emergence
Procedure, shortened: (§1)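 Read-out is a visual response score from 0 (no effect) to 10 (complete control), assigned by comparison with untreated controls. Treatment was applied at the 2-leaf stage, and plants stayed in the greenhouse for twelve to sixteen days before scoring.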

[2] = tested on: cocklebur; experiment: Test B pre/postemergence cocklebur; assay type: in vivo, Xanthium strumarium
Procedure, shortened: (§2)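 Herbicidal effect was estimated by eye on a ten-point control scale after plants spent twelve to sixteen days in a greenhouse following soil or foliar treatment. Foliar sprays targeted plants at one to four leaves; all doses were formulated in a non-phytotoxic solvent with surfactant.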

[3] = tested on: morningglory; experiment: Test B pre/postemergence morningglory; assay type: in vivo, Ipomoea hederacea
Procedure, shortened: as §2

[4] = tested on: soybean; experiment: Test B pre/postemergence soybean; assay type: in vivo, Glycine max
Procedure, shortened: as §2

[5] = tested on: smallflower flatsedge; experiment: Test B flood test smallflower flatsedge; assay type: in vivo, Cyperus difformis; settings: for Plant response rating, S. Flatsedge (0 to 10 scale, 0 is no effect, 10 is complete control): Rate 62 g/ha; for Plant response rating, S. Flatsedge (0 to 10 scale, 0 is no effect, 10 is complete control) / S. Flatsedge plant response rating (0 to 10 scale, 0 is no effect, 10 is complete control): visual evaluation after twelve to sixteen days; for S. Flatsedge plant response rating (0 to 10 scale, 0 is no effect, 10 is complete control): Rate 125 g/ha, under heading Pre-emergence
Experimental: (§3) At the same time, these crop and weed species were also treated with postemergence applications of test chemicals formulated in the same manner. Plants ranged in height from 2 to 18 cm (1- to 4-leaf stage) for postemergence treatments. Plant species in the flood test consisted of rice (Oryza sativa), smallflower flatsedge (Cyperus difformis), duck salad (Heteranthera limosa) and bamyardgrass (Echinochloa crus-galli) grown to the 2-leaf stage for testing. Treated plants and controls were maintained in a greenhouse for twelve to sixteen days, after which all species were compared to controls and visually evaluated. Plant response ratings, summarized in Table B, are based on a scale of 0 to 10 where 0 is no effect and 10 is complete control. A dash (−) response means no test result.

[6] = tested on: purple nutsedge; experiment: Test B pre/postemergence purple nutsedge; assay type: in vivo, Cyperus rotundus
Procedure, shortened: as §2

[7] = tested on: velvetleaf; experiment: Test B pre/postemergence velvetleaf; assay type: in vivo, Abutilon theophrasti
Procedure, shortened: as §2

[8] = tested on: duck salad; experiment: Test B flood test duck salad; assay type: in vivo, Heteranthera limosa; settings: for Plant response rating, Ducksalad (0 to 10 scale, 0 is no effect, 10 is complete control): Rate 62 g/ha; for Plant response rating, Ducksalad (0 to 10 scale, 0 is no effect, 10 is complete control) / Ducksalad plant response rating (0 to 10 scale, 0 is no effect, 10 is complete control): visual evaluation after twelve to sixteen days; for Ducksalad plant response rating (0 to 10 scale, 0 is no effect, 10 is complete control): Rate 125 g/ha, under heading Pre-emergence
Procedure, shortened: as §1

[9] = tested on: giant foxtail; experiment: Test B pre/postemergence giant foxtail; assay type: in vivo, Setaria faberii
Procedure, shortened: as §2

[10] = tested on: crabgrass; experiment: Test B pre/postemergence crabgrass; assay type: in vivo, Digitaria sanguinalis
Procedure, shortened: as §2

[11] = tested on: sugar beet; experiment: Test B pre/postemergence sugar beet; assay type: in vivo, Beta vulgaris
Procedure, shortened: as §2

[12] = tested on: corn; experiment: Test B pre/postemergence corn; assay type: in vivo, Zea mays
Procedure, shortened: as §2

[13] = tested on: blackgrass; experiment: Test B pre/postemergence blackgrass; assay type: in vivo, Alopecurus myosuroides
Procedure, shortened: as §2

[14] = tested on: wild oat; experiment: Test B pre/postemergence wild oat; assay type: in vivo, Avena fatua
Procedure, shortened: as §2

[15] = tested on: rape; experiment: Test B pre/postemergence rape; assay type: in vivo, Brassica napus
Procedure, shortened: as §2

[16] = tested on: surinam grass; experiment: Test B pre/postemergence surinam grass; assay type: in vivo, Brachiaria decumbens
Procedure, shortened: as §2

[17] = tested on: wheat; experiment: Test B pre/postemergence wheat; assay type: in vivo, Triticum aestivum
Procedure, shortened: as §2

[18] = tested on: bamyardgrass; experiment: Test B flood test barnyardgrass; assay type: in vivo, Echinochloa crus-galli; settings: for Plant response rating, Barnyardgrass (0 to 10 scale, 0 is no effect, 10 is complete control): Rate 62 g/ha; for Plant response rating, Barnyardgrass (0 to 10 scale, 0 is no effect, 10 is complete control) / Barnyardgrass plant response rating (0 to 10 scale, 0 is no effect, 10 is complete control): visual evaluation after twelve to sixteen days; for Barnyardgrass plant response rating (0 to 10 scale, 0 is no effect, 10 is complete control): Rate 125 g/ha, under heading Pre-emergence
Experimental: as §3

[19] = tested on: pigweed; experiment: Test B pre/postemergence pigweed; assay type: in vivo, Amaranthus retroflexus
Procedure, shortened: as §2

[20] = flood test species, Pre-emergence
[21] = Rate 250 g/ha, Pre-emergence, flood-test species, scale 0 to 10, 0 is no effect, 10 is complete control
[22] = Rate 500 g/ha, Pre-emergence, flood test species, scale 0 to 10 (0 no effect, 10 complete control)
[23] = Postemergence, Rate 125 g/ha, scale 0 to 10, 0 is no effect, 10 is complete control
[24] = Postemergence, Rate 250 g/ha, scale 0 to 10, 0 is no effect, 10 is complete control
[25] = Postemergence, Rate 500 g/ha, scale of 0 to 10 where 0 is no effect and 10 is complete control
[26] = Preemergence, Rate 62 g/ha, scale 0 to 10 (0 no effect, 10 complete control)
[27] = Preemergence, Rate 125 g/ha, scale of 0 to 10 where 0 is no effect and 10 is complete control
[28] = Preemergence, Rate 250 g/ha, scale 0 to 10, 0 is no effect, 10 is complete control
[29] = Preemergence, Rate 500 g/ha, scale 0 to 10, 0 is no effect, 10 is complete control
[30] = Rate 62 g/ha, Postemergence, scale of 0 to 10 where 0 is no effect and 10 is complete control
[31] = Preemergence, Rate 250 g/ha, scale of 0 to 10 where 0 is no effect and 10 is complete control
[32] = Rate 250 g/ha, Pre-emergence (flood test species), scale 0 to 10, 0 is no effect, 10 is complete control
[33] = Rate 500 g/ha, Pre-emergence section of Table B, 0 to 10 scale (0 no effect, 10 complete control)

Cc1nc(Cl)sc1C(C)n1c(=O)on(C(=O)N(c2ccc(F)cc2F)C(C)C)c1=O (centres unmarked) [Compound 405]
Plant response rating, Rice (0 to 10 scale, 0 is no effect, 10 is complete control) [1, 20]: 0
Rice plant response rating (0 to 10 scale, 0 is no effect, 10 is complete control) ([1]; flood test species): 0
Rice plant response rating [1, 21]: 0
Rice plant response rating [1, 22]: 0
Plant response rating, Cocklebur [2, 23]: 0
Plant response rating, Cocklebur [2, 24]: 0
Cocklebur plant response rating [2, 25]: 0
Plant response rating, Cocklebur [2, 26]: 0
Plant response rating, Cocklebur [2, 27]: 0
Cocklebur plant response rating [2, 28]: 0
Cocklebur plant response rating [2, 29]: 0
Cocklebur plant response rating [2, 30]: 0
Plant response rating, Morningglory [3, 24]: 5
Morningglory plant response rating [3, 25]: 5
Plant response rating, Morningglory [3, 26]: 0
Plant response rating, Morningglory [3, 27]: 0
Morningglory plant response rating [3, 28]: 0
Morningglory plant response rating [3, 29]: 0
Plant response rating, Soybean [4, 24]: 2
Soybean plant response rating [4, 25]: 3
Plant response rating, Soybean [4, 26]: 0
Plant response rating, Soybean [4, 27]: 0
Soybean plant response rating [4, 28]: 0
Soybean plant response rating [4, 29]: 3
Plant response rating, S. Flatsedge (0 to 10 scale, 0 is no effect, 10 is complete control) [5, 20]: 0
S. Flatsedge plant response rating (0 to 10 scale, 0 is no effect, 10 is complete control) ([5]; flood test species): 0
S. Flatsedge plant response rating [5, 21]: 0
S. Flatsedge plant response rating [5, 22]: 0
Plant response rating, Nutsedge [6, 24]: 0
Nutsedge plant response rating [6, 25]: 0
Plant response rating, Nutsedge [6, 26]: 0
Plant response rating, Nutsedge [6, 27]: 0
Nutsedge plant response rating [6, 28]: 0
Nutsedge plant response rating [6, 29]: 0
Plant response rating, Velvetleaf [7, 24]: 0
Velvetleaf plant response rating [7, 25]: 0
Plant response rating, Velvetleaf [7, 26]: 0
Plant response rating, Velvetleaf [7, 27]: 0
Velvetleaf plant response rating [7, 28]: 0
Velvetleaf plant response rating [7, 29]: 0
Plant response rating, Ducksalad (0 to 10 scale, 0 is no effect, 10 is complete control) [8, 20]: 0
Ducksalad plant response rating (0 to 10 scale, 0 is no effect, 10 is complete control) ([8]; flood test species): 0
Ducksalad plant response rating [8, 21]: 0
Ducksalad plant response rating [8, 22]: 0
Plant response rating, Giant foxtail [9, 23]: 0
Plant response rating, Giant foxtail [9, 24]: 0
Giant foxtail plant response rating [9, 25]: 6
Plant response rating, Giant foxtail [9, 26]: 0
Plant response rating, Giant foxtail [9, 27]: 8
Giant foxtail plant response rating [9, 28]: 9
Giant foxtail plant response rating [9, 29]: 10
Giant foxtail plant response rating [9, 30]: 0
Plant response rating, Crabgrass [10, 23]: 0
Plant response rating, Crabgrass [10, 24]: 0
Crabgrass plant response rating [10, 25]: 0
Plant response rating, Crabgrass [10, 26]: 0
Plant response rating, Crabgrass [10, 27]: 1
Crabgrass plant response rating [10, 28]: 8
Crabgrass plant response rating [10, 29]: 10
Crabgrass plant response rating [10, 30]: 0
Plant response rating, Sugarbeets [11, 24]: 0
Sugarbeets plant response rating [11, 25]: 0
Plant response rating, Sugarbeets [11, 26]: 0
Plant response rating, Sugarbeets [11, 27]: 0
Sugarbeets plant response rating [11, 28]: 0
Sugarbeets plant response rating [11, 29]: 0
Plant response rating, Corn [12, 23]: 0
Plant response rating, Corn [12, 24]: 0
Corn plant response rating [12, 25]: 0
Plant response rating, Corn [12, 26]: 0
Plant response rating, Corn [12, 27]: 0
Corn plant response rating [12, 28]: 0
Corn plant response rating [12, 30]: 0
Plant response rating, Blackgrass [13, 23]: 0
Plant response rating, Blackgrass [13, 24]: 0
Blackgrass plant response rating [13, 25]: 5
Plant response rating, Blackgrass [13, 26]: 0
Plant response rating, Blackgrass [13, 27]: 0
Blackgrass plant response rating [13, 31]: 0
Blackgrass plant response rating [13, 29]: 0
Blackgrass plant response rating [13, 30]: 0
Wild oats plant response rating [14, 25]: 0
Plant response rating, Wild oats [14, 26]: 0
Plant response rating, Wild oats [14, 27]: 0
Wild oats plant response rating [14, 28]: 0
Wild oats plant response rating [14, 29]: 0
Plant response rating, Rape [15, 24]: 0
Rape plant response rating [15, 25]: 2
Plant response rating, Rape [15, 26]: 0
Plant response rating, Rape [15, 27]: 0
Rape plant response rating [15, 28]: 0
Rape plant response rating [15, 29]: 0
Plant response rating, B. signalgrass [16, 23]: 0
Plant response rating, B. signalgrass [16, 24]: 0
B. signalgrass plant response rating [16, 25]: 0
Plant response rating, B. signalgrass [16, 26]: 0
Plant response rating, B. signalgrass [16, 27]: 0
B. signalgrass plant response rating [16, 31]: 0
B. signalgrass plant response rating ([16]; Preemergence, Rate 500 g/ha, scale of 0 to 10 where 0 is no effect and 10 is complete control): 0
B. signalgrass plant response rating [16, 30]: 0
Wheat plant response rating [17, 25]: 0
Plant response rating, Wheat [17, 26]: 0
Plant response rating, Wheat [17, 27]: 0
Wheat plant response rating [17, 28]: 0
Wheat plant response rating [17, 29]: 0
Plant response rating, Barnyardgrass (0 to 10 scale, 0 is no effect, 10 is complete control) [18, 20]: 0
Barnyardgrass plant response rating (0 to 10 scale, 0 is no effect, 10 is complete control) ([18]; flood test species): 0
Barnyardgrass plant response rating [18, 21]: 0
Barnyardgrass plant response rating [18, 22]: 0
Plant response rating, Redroot pigweed [19, 24]: 0
Redroot pigweed plant response rating [19, 25]: 0
Plant response rating, Redroot pigweed [19, 26]: 0
Plant response rating, Redroot pigweed [19, 27]: 0
Redroot pigweed plant response rating [19, 28]: 0
Redroot pigweed plant response rating [19, 29]: 0

C=C(C(=O)OC)C(C)n1c(=O)on(C(=O)N(c2ccccc2)C(C)C)c1=O (centres unmarked) [Compound 651]
Plant response rating, Rice (0 to 10 scale, 0 is no effect, 10 is complete control) [1, 20]: 0
Rice plant response rating (0 to 10 scale, 0 is no effect, 10 is complete control) ([1]; flood test species): 0
Rice plant response rating [1, 32]: 0
Rice plant response rating [1, 33]: 0
Plant response rating, S. Flatsedge (0 to 10 scale, 0 is no effect, 10 is complete control) [5, 20]: 0
S. Flatsedge plant response rating (0 to 10 scale, 0 is no effect, 10 is complete control) ([5]; flood test species): 0
S. Flatsedge plant response rating [5, 32]: 0
S. Flatsedge plant response rating [5, 33]: 0
Plant response rating, Ducksalad (0 to 10 scale, 0 is no effect, 10 is complete control) [8, 20]: 0
Ducksalad plant response rating (0 to 10 scale, 0 is no effect, 10 is complete control) ([8]; flood test species): 0
Ducksalad plant response rating [8, 32]: 0
Ducksalad plant response rating [8, 33]: 0
Plant response rating, Barnyardgrass (0 to 10 scale, 0 is no effect, 10 is complete control) [18, 20]: 0
Barnyardgrass plant response rating (0 to 10 scale, 0 is no effect, 10 is complete control) ([18]; flood test species): 0
Barnyardgrass plant response rating [18, 32]: 0
Barnyardgrass plant response rating [18, 33]: 0
